pIC50: −log10 of the molar value.
Tests used:
Human IL2 promoter = Human IL2 promoter reporter gene assay (RGA) in Jurkat cells; format: cell-based; conditions: Jurkat clone K22 290_H23, anti-CD28 mAb + PMA stimulation 5.5 h
Summary of the method: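 Transfected Jurkat clone K22 290_H23 cells were pre-incubated with compounds 30 min at 37 °C, then stimulated 5.5 h with anti-CD28 mAb (15E8, 3 μg/ml) plus PMA (1 μg/ml). IL2-promoter reporter activity was read as BriteLitePlus bioluminescence.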

[1] = biological target: cIAP2-MALT1 fusion protein (Homo sapiens, UniProt Q9UDY8); conditions: read-out: NFkappaB reporter gene assay IC50; HEK293 stably expressing cIAP2-MALT1, luciferase, 24 h compound incubation
Chain of cIAP2-MALT1 fusion protein (Q9UDY8 2-824 limits assumed): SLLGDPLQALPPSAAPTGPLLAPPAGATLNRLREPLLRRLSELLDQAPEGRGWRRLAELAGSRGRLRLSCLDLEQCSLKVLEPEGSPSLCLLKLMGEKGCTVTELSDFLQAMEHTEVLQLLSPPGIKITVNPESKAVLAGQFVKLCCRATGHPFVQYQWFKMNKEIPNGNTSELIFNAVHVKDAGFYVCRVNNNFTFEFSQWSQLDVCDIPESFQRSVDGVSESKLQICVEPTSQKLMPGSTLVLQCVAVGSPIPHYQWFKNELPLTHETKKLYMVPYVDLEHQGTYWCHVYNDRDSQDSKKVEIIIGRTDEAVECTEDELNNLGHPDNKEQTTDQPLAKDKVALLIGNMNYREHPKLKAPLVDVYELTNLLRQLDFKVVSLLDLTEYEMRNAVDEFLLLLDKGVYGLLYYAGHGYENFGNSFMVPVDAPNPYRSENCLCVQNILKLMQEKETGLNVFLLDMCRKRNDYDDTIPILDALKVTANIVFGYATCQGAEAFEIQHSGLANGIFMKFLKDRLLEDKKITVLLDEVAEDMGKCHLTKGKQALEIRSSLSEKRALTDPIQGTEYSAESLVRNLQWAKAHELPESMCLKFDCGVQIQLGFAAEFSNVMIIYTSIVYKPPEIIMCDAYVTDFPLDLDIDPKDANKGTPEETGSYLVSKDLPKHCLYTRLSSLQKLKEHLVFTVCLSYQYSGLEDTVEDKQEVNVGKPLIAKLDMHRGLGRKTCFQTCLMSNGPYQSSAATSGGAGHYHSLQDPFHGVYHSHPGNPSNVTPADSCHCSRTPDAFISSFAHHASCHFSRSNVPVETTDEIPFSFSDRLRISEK

| Structure (SMILES) | pIC50 (Human IL2 promoter) | pIC50 [1] |
| --- | --- | --- |
| CO[C@@H](C)c1c(NC(=O)Nc2ccnc(C(F)(F)F)c2)cnc2cc(C)nn12 [Example 6, (S)-1-(7-(1-methoxyethyl)-2-methylpyrazolo[1,5-a]pyrimidin-6-yl)-3-(2-(trifluoromethyl)pyridin-4-yl)urea] | 7.28 | 6.88 |
| COc1ncc(NC(=O)Nc2cnc3cc(Cl)nn3c2[C@H](C)OC)cc1Cl [Example 9, (S)-1-(5-chloro-6-methoxypyridin-3-yl)-3-(2-chloro-7-(1-methoxyethyl)pyrazolo[1,5-a]pyrimidin-6-yl)urea] | 6.96 | 7.36 |
| CCC(C)c1c(NC(=O)Nc2cnc(-n3nccn3)c(Cl)c2)cnc2cc(Cl)nn12 (stereo not shown) [Example 35, 1-(7-(sec-butyl)-2-chloropyrazolo[1,5-a]pyrimidin-6-yl)-3-(5-chloro-6-(2H-1,2,3-triazol-2-yl)pyridin-3-yl)urea] | 7.23 | 7.32 |

Other lines, results leading:

| pIC50 (Human IL2 promoter) | pIC50 [1] | Structure (SMILES) |
| --- | --- | --- |
| 7.03 | 6.93 | O=C(Nc1cnc(-n2nccn2)c(C(F)(F)F)c1)Nc1cnc2cc(Cl)nn2c1C1CCCO1 (stereo not shown) [Example 54, 1-(6-(2H-1,2,3-triazol-2-yl)-5-(trifluoromethyl)pyridin-3-yl)-3-(2-chloro-7-(tetrahydrofuran-2-yl)pyrazolo[1,5-a]pyrimidin-6-yl)urea] |
| 7.77 | 7.37 | C[C@@H](c1c(NC(=O)Nc2cnc(-n3nccn3)c(Cl)c2)cnc2cc(Cl)nn12)N(C)C [Example 122, (S)-1-(5-chloro-6-(2H-1,2,3-triazol-2-yl)pyridin-3-yl)-3-(2-chloro-7-(1-(dimethylamino)ethyl)pyrazolo[1,5-a]pyrimidin-6-yl)urea] |

Source: patent US9815842B2, “Pyrazolo pyrimidine derivatives and their use as MALT1 inhibitors” (Novartis AG, priority 2014, dated 2017)
